Results taken from article PMC10046037, “GABRG2 Variants Associated with Febrile Seizures” (Biomolecules, 2023).

Legend:
[1] = target: T1, α1β3γ2 GABAA receptor, γ2R224X variant (Homo sapiens, UniProt P14867+P28472); assay: Automated patch clamp of GABA-elicited currents (SyncroPatch 384PE), γ2R224X; type: cell-based; details: mean
T1 construct: expressed in transfected cells; host or cells: HEK293T
T1 sequence (P14867 28-456): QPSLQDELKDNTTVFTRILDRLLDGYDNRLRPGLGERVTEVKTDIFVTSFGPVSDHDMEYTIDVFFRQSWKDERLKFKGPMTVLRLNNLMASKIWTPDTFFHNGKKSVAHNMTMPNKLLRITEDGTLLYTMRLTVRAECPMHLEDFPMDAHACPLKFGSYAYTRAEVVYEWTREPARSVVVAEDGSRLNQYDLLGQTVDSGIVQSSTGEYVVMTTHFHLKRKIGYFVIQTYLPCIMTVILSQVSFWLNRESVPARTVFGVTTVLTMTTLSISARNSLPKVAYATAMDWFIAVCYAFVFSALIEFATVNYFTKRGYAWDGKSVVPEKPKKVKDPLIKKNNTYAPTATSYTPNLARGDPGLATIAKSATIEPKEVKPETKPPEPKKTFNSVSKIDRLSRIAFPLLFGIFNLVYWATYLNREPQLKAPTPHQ
T1 sequence (P28472 1-473 isoform P28472-2): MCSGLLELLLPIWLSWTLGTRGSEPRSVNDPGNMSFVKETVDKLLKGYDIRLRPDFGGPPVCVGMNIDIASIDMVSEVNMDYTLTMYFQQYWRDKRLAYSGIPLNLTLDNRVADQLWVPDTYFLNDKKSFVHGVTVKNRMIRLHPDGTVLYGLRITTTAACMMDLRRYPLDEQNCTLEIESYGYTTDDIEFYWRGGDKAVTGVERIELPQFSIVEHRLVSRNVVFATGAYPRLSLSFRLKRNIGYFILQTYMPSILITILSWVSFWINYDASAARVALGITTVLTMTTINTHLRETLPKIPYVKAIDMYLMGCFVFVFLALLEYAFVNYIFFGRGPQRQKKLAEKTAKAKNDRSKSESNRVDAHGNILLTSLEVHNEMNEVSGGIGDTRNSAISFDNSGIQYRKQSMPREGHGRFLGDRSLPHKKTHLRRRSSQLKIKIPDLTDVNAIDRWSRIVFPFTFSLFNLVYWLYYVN
Protocol: (§1) The coding sequences of human α1 (GABRA1, NM_000806), β3 (GABRB3, NM_021912), and γ2 (GABRG2, NM_198904.2) GABAAR subunits were subcloned into the pcDNA3.1 expression vectors (Invitrogen, Waltham, MA, USA).
(§2) HEK293T cells (ATCC, CRL-11268) were cultured at 37 °C in a humidified 5% CO2 incubator and maintained in Dulbecco’s modified Eagle’s medium (Invitrogen) supplemented with 10% fetal bovine serum (Life Technologies, Carlsbad, CA, USA), and 100 IU/mL of penicillin/streptomycin (Life Technologies). For the expression experiments, 4 × 10^5 cells were transfected using polyethylenimine (PEI) reagent (40 kD, Polysciences, Warrington, PA, USA) at a DNA: to transfection reagent ratio of 1:2.5 and harvested 36 h after transfection. To express WT and variant α1β3γ2 receptors, a total of 3 µg of α1, β3, and γ2 (WT or mutant) subunit cDNAs were transfected at a ratio of 1:1:1 into 60 mm culture dishes. For the mock-transfected condition, an empty pcDNA3.1 vector was added for a final cDNA transfection amount of 3 μg. For the electrophysiology experiments, 2.5 × 10^5 cells were plated in 100 mm culture dishes and transfected after 24 h with 3 μg of cDNA of each α1, β3, γ2 (wild-type or mutant) subunit, using X-tremeGENE HP DNA transfection Reagent (Roche Diagnostics, Basel, Switzerland), following the manufacturer’s protocol. Recordings were obtained forty-eight hours after transfection.
(§3) Whole-cell patch clamp recordings were conducted according to the manufacturer’s standard procedure for the SyncroPatch 384 [31]. Whole-cell voltage-clamp recordings were performed at room temperature on HEK293T cells 48 h after transfection with GABAAR subunits, using the SyncroPatch 384PE (Nanion Technologies, Munich, Germany). Cells, at a concentration of 400,000 cells/mL, were harvested in suspension in external solution containing 140 mM of NaCl, 2 mM of CaCl2, 4 mM of KCl, 1 mM of MgCl2, 5 mM of glucose, and 10 mM of HEPES (pH 7.4 with NaOH, 298 mOsm). The cells were loaded in a multi-hole (4 holes per well) 384-well Nanion patch clamp (NPC) chip with a thick borosilicate glass bottom and an average resistance pore size of […]. Built-in electrophysiological protocols were used, and the data were digitized using PatchControl 384 (Nanion Technologies) application. Using PatchControl 384, electrophysiological parameters, such as seal resistance, capacitance, and series resistance, were determined for each well after the application of a test pulse, and subsequently monitored over time. […] The currents were normalized to the maximal response of each well, and the concentration–response curves were calculated from single-point additions. The EC50 values for each variant or wild-type receptor were calculated across multiple wells for each experimental condition.

[2] = target: T2, α1β3γ2 GABAA receptor, γ2W162X variant (Homo sapiens, UniProt P14867+P28472); assay: Automated patch clamp of GABA-elicited currents (SyncroPatch 384PE), γ2W162X; type: cell-based; details: mean
T2 construct: expressed in transfected cells; host or cells: HEK293T
T2 sequence (P14867 28-456): T1 sequence (P14867 28-456)
T2 sequence (P28472 1-473 isoform P28472-2): T1 sequence (P28472 1-473 isoform P28472-2)
Protocol: as §1, §2, §3

[3] = 1 mM GABA for 5 ms, HEK293T, -80 mV
[4] = 10–90% rise time, 1 mM GABA for 5 ms, HEK293T

NCCCC(=O)O [GABA, γ-aminobutyric acid]
Deactivation [1, 3]: 350.1 ms | IMAX (maximal GABA-evoked peak current) ([1]; 1 mM GABA for 5 ms, HEK293T): 0.85 nA | IMAX variant/IMAX WT ([1]; 1 mM GABA): 42.52% | Rise Time [1, 4]: 72.64 ms | Deactivation [2, 3]: 533.8 ms | IMAX (maximal GABA-evoked peak current) ([2]; 1 mM GABA for 5 ms, HEK293T): 0.48 nA | IMAX variant/IMAX WT ([2]; 1 mM GABA): 24.07% | Rise Time [2, 4]: 23.51 ms
